“And” between values parts separate entries of the source, which are not always exact repeats. Equal values may be shown once. Toxic doses and inconclusive results are not listed. How the source made its calls: active means survival T/C of 150% or more; inactive means T/C below 125% in these data.
Test system: BDF1 mice, B16 melanoma ip, median survival T/C
Assay: NCI In Vivo Anticancer Drug Screen. Data for tumor model B16 Melanoma (intraperitoneal) in B6D2F1 (BDF1) mice
Settings: endpoint: median survival time, higher = longer survival
Summary of the method: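 In this screen, activity was judged from survival or tumor size in treated versus vehicle-treated tumor-bearing mice, reported as T/C.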

[1] = dose: 100.0 mg/kg/injection, schedule: Q01DX009 (ip), vehicle: Klucel (hydroxypropylcellulose) (HPC)
[2] = dose: 200.0 mg/kg/injection, schedule: Q01DX009 (ip), vehicle: Klucel (hydroxypropylcellulose) (HPC)
[3] = dose: 100.0 mg/kg/injection, schedule: Q01DX009 (ip), vehicle: saline with Tween-80
[4] = dose: 6.25 mg/kg/injection, schedule: Q04DX003 (ip), vehicle: Klucel (hydroxypropylcellulose) (HPC)
[5] = dose: 12.5 mg/kg/injection, schedule: Q04DX003 (ip), vehicle: Klucel (hydroxypropylcellulose) (HPC)

Measured: T/C

CCC[CH2][Pb]([CH2]CCC)([CH2]CCC)[O]C(=O)CCl
inactive: dose: 1.56 mg/kg/injection, schedule: Q01DX009 (ip), vehicle: Klucel (hydroxypropylcellulose) (HPC) 90 % of control

O=S1(=O)CC(Cl)(Br)C1 (tested in a mixture with another compound)
inactive: dose: 12.5 mg/kg/injection, schedule: Q01DX009 (ip), vehicle: Klucel (hydroxypropylcellulose) (HPC) 105 % of control | dose: 25.0 mg/kg/injection, schedule: Q01DX009 (ip), vehicle: Klucel (hydroxypropylcellulose) (HPC) 108 % of control | dose: 50.0 mg/kg/injection, schedule: Q01DX009 (ip), vehicle: Klucel (hydroxypropylcellulose) (HPC) 108 % of control | [1] 93 % of control and 108 % of control

CC(=O)N(C)N=Nc1ccc(C)cc1
inactive: dose: 8.75 mg/kg/injection, schedule: Q01DX009 (ip), vehicle: Klucel (hydroxypropylcellulose) (HPC) 103 % of control | dose: 17.5 mg/kg/injection, schedule: Q01DX009 (ip), vehicle: Klucel (hydroxypropylcellulose) (HPC) 103 % of control

COc1c2c([n+](C)c3c(OC)cccc13)OC(C(C)C)C2 (stereo not drawn)
inactive: dose: 0.25 mg/kg/injection, schedule: Q01DX009 (ip), vehicle: saline sonified 102 % of control | dose: 0.5 mg/kg/injection, schedule: Q01DX009 (ip), vehicle: saline sonified 100 % of control | dose: 0.75 mg/kg/injection, schedule: Q01DX009 (ip), vehicle: saline 94 % of control | dose: 1.0 mg/kg/injection, schedule: Q01DX009 (ip), vehicle: saline sonified 102 % of control | dose: 1.5 mg/kg/injection, schedule: Q01DX009 (ip), vehicle: saline 88 % of control | dose: 1.5 mg/kg/injection, schedule: Q04DX003 (ip), vehicle: saline 107 % of control | dose: 3.0 mg/kg/injection, schedule: Q04DX003 (ip), vehicle: saline 89 % of control

O=[N+]([O-])c1ccc(N2CCCC2)c([N+](=O)[O-])c1
inactive: [1] 93 % of control | [2] 100 % of control | dose: 400.0 mg/kg/injection, schedule: Q01DX009 (ip), vehicle: Klucel (hydroxypropylcellulose) (HPC) 100 % of control

O=C1C=C(N2CC2)c2ccccc2C1=O
inactive: dose: 5.0 mg/kg/injection, schedule: Q01DX009 (ip), vehicle: saline with Tween-80 105 % of control | dose: 10.0 mg/kg/injection, schedule: Q01DX009 (ip), vehicle: saline with Tween-80 100 % of control

CCSc1nc2nccnc2c(=O)[nH]1
inactive: [1] 102 % of control | [2] 97 % of control

COC(=O)C1C2OC(C(Br)C2Br)C1C(=O)OC (stereo not drawn)
inactive: dose: 100.0 mg/kg/injection, schedule: Q04DX003 (ip), vehicle: Klucel (hydroxypropylcellulose) (HPC) 103 % of control | dose: 200.0 mg/kg/injection, schedule: Q04DX003 (ip), vehicle: Klucel (hydroxypropylcellulose) (HPC) 105 % of control | dose: 400.0 mg/kg/injection, schedule: Q04DX003 (ip), vehicle: Klucel (hydroxypropylcellulose) (HPC) 101 % of control

O=C(COc1ccc(Cl)cc1)Nc1ccc(Cl)cc1
inactive: dose: 25.0 mg/kg/injection, schedule: Q01DX009 (ip), vehicle: saline with Tween-80 90 % of control | dose: 50.0 mg/kg/injection, schedule: Q01DX009 (ip), vehicle: saline with Tween-80 92 % of control | [3] 92 % of control

C[C@H]1[C@H](O)[C@H]2[C@@H](CCC3=CC(=O)CC[C@@]32C)[C@@H]2CC[C@H](O)[C@@]12C
inactive: [3] 94 % of control | dose: 200.0 mg/kg/injection, schedule: Q01DX009 (ip), vehicle: saline with Tween-80 100 % of control

CC12CCC(O)CC1CCC1C2CCC2(C)C(c3ccc(=O)oc3)CCC12O (stereo not drawn)
inactive: dose: 0.31 mg/kg/injection, schedule: Q01DX009 (ip), vehicle: saline with Tween-80 98 % of control | dose: 0.62 mg/kg/injection, schedule: Q01DX009 (ip), vehicle: saline with Tween-80 94 % of control | dose: 1.25 mg/kg/injection, schedule: Q01DX009 (ip), vehicle: saline with Tween-80 99 % of control | dose: 2.5 mg/kg/injection, schedule: Q01DX009 (ip), vehicle: saline with Tween-80 99 % of control

CCC1(O)CC(OC2CC(N(C)C)C(OC3CC(O)C(OC4CCC(=O)C(C)O4)C(C)O3)C(C)O2)c2c(cc3c(c2O)C(=O)c2c(O)ccc(O)c2C3=O)C1C(=O)OC (stereo not drawn)
inactive: dose: 0.23 mg/kg/injection, schedule: Q01DX009 (ip), vehicle: saline with Tween-80 98 % of control | dose: 3.6 mg/kg/injection, schedule: Q01DX001 (ip), vehicle: water 101 % of control and 109 % of control | dose: 6.0 mg/kg/injection, schedule: Q01DX001 (ip), vehicle: water 106 % of control and 112 % of control | dose: 10.0 mg/kg/injection, schedule: Q01DX001 (ip), vehicle: water 111 % of control

CCCCCCCC(=O)N(C)OC
inactive: [4] 107 % of control | [5] 96 % of control | dose: 25.0 mg/kg/injection, schedule: Q04DX003 (ip), vehicle: Klucel (hydroxypropylcellulose) (HPC) 112 % of control

c1ccc(-c2nc3cnccc3o2)cc1
inactive: dose: 3.13 mg/kg/injection, schedule: Q04DX003 (ip), vehicle: Klucel (hydroxypropylcellulose) (HPC) 91 % of control | [4] 100 % of control | [5] 91 % of control and 97 % of control

Source: PubChem BioAssay AID192 (DTP/NCI, 2004)
